# Values of other authors as cited in patent US20070123520A1 (priority 2005, published 2007).
# Tests used:
# [1] = in vivo
# [2] = in vivo; remark: listed apart in the source
# methemoglobinemia = conditions: in vivo, iv, 1 mg/kg
# [3] = in vivo; remark: listed apart in the source
# sheep = conditions: in vivo
# [4] = in vivo; remark: listed apart in the source
structure (smiles),measurement,setting,value
CCOC(=O)C1=C[C@@H](OC(CC)CC)[C@H](NC(C)=O)[C@@H](N)C1 [oseltamivir],activity against influenza A viruses,influenza A viruses,activity
"CN(C)c1ccc2nc3ccc(N(C)C)cc3[s+]c2c1.[Cl-] [methylene blue, 3,7-Bis(dimethylamino)-phenothiazin-5-ium chloride]",Side effects,[1],"blue urine, occasional nausea, anemia and fever"
same,side effects,[1],minimal side effects
same,overall elimination rate constant,[2],0.0076 ± 0.0016 min⁻¹
same,treatment of methemoglobinemia,methemoglobinemia,effective
same,crossing of the blood-milk barrier,[3],crosses the blood-milk barrier easily
same,methemoglobin production,sheep,minimal
same,hematologic changes,sheep; 30 mg/kg,no hematologic changes
same,absorption from the GI tract,[4],absorbed well
same,Oral absorption (range),[4]; po,53-97%
CC(=O)N[C@H]1[C@H]([C@H](O)[C@H](O)CO)OC(C(=O)O)=C[C@@H]1N=C(N)N [zanamivir],activity against influenza A viruses,influenza A viruses,activity
CC(N)C12CC3CC(CC(C3)C1)C2 (stereo not shown) [rimantadine],activity against influenza A viruses,influenza A viruses,activity
NC12CC3CC(CC(C3)C1)C2 [amantadine],activity against influenza A viruses,influenza A viruses,activity
